Several values for one entry are separate records, joined by “and”; a condition that tells them apart may be missing. Identical values can stand only once.
How the values were obtained:
[1] = system: brain DOPAC (turnover of dopamine); assay: Turnover of dopamine in rodent brains by determination of DOPAC concentrations (rat); format: in vivo, rat (Sprague-Dawley); details: 10 mg/kg oral, 2 h
From the text: (7) Measurement of the turnover of dopamine in rodent brains by determination of DOPAC concentrations following drug administration
Inhibition of dopamine reuptake in the brain reduces the rate at which dopamine is synthesised and metabolised (the turnover rate). This can be assessed by measuring the amount of the dopamine metabolite DOPAC (dihydroxyphenylacetic acid) which accumulates in the brains of rats and mice. In addition, the administration of probenecid blocks active transport of DOPAC out of the brain. The subsequent rise in brain DOPAC concentrations is attenuated by drugs which inhibit dopamine reuptake.
One group of animals was killed two hours later. An additional group was administered probenecid (200 mg/kg i.p.; Sigma Chemical Co.) 30 minutes after the drug and then killed after a further 90 minutes. The animals were killed by decapitation and brains were rapidly removed and dissected on an ice-chilled porcelain plate. They were cut longitudinally along the midline; one half was retained for whole brain analysis while the striatum was dissected from the other. Tissues were immediately frozen in liquid N2 and stored over dry ice (-80° C.) until assay. Whole brain tissue was homogenised in 5 volumes 0.4M perchloric acid (containing 0.01% (w/v) Na2 S2 O3, 0.1% (w/v) EDTA) and striata in 600 μl using a Polytron (setting 6; 20 seconds) fitted with a microprobe (PT-7). Samples were then centrifuged at 30,000×g (whole brain samples) or at 3,500×g (striata) using a microfuge (Beckman) set up to take 1200 μl polypropylene tubes. Aliquots (50 μl) of the clear supernatants were then injected automatically into the chromatographic system for the separation and quantification of DOPAC.
High pressure liquid chromatography (HPLC) combined with electrochemical detection (ECD) was employed to assay DOPAC. A mobile phase (0.1M CH3 OH (84:16%) containing 0.1% octanesulphonic acid, 0.1% EDTA and 0.01% Na2 S2 O3) was delivered by a Dupont 870 pump module at a flow-rate of 1.0 ml/min to a reverse-phase analytical column (25×0.4cm) and guard column (both packed with 5 μm Spherisorb ODS 2) maintained at 45° C. in a thermostatically controlled cabinet. Automatic sample injection was provided by a WISP 710B module (Waters Associates) and ECD was performed using a Bioanalytical Systems LC4A controller and cell, with a glassy carbon electrode maintained at +0.65 v versus a Ag-AgCl reference electrode. The controller was set at 20 nA full-scale and output from the cell recorded using a Spectra-Physics 4100 automatic computing integrator. Quantification of DOPAC was effected by the computing integrator after calibration of the HPLC-ECD system using DOPAC of known concentration and including isoprenaline as an internal standard. […]

[2] = system: uptake of radiolabelled dopamine into freshly prepared synaptosomes from rat striatum; assay: Inhibition of dopamine uptake in vitro by plasma from humans treated with drug (14C-dopamine, rat striatal synaptosomes); format: biochemical; details: plasma 3 h after 50 mg oral; for % Inhibition of dopamine uptake: hydrochloride monohydrate
Description: (5) Inhibition of dopamine uptake in vitro by plasma from humans treated with drug
The plasma was separated by centrifugation at 2900×g for 20 minutes at room temperature in a Heraeus Christ minicentrifuge and was stored at -20° C. prior to analysis. The samples were thawed in a water bath at 37° C. for 10-15 minutes prior to commencement of the in vitro dopamine uptake assay which was performed as described in (3) above except ^14 C-dopamine was used. The assay was performed twice on plasma from each volunteer.

CC(C)CC(N(C)C)C1(c2ccc(Cl)cc2)CCC1.Cl.O (stereo not shown) [N,N-dimethyl-1-[1-(4-chlorophenyl)cyclobutyl]-3-methylbutylamine hydrochloride monohydrate]
Brain DOPAC Levels ([1]; A (drug alone), striatum, control 921 ± 56): 601 ± 17 ng/g wet wt
Brain DOPAC Levels ([1]; A (drug alone), whole brain, control 62 ± 5): 36 ± 4 ng/g wet wt
Brain DOPAC Levels ([1]; B (with probenecid 200 mg/kg i.p.), striatum, control 1325 ± 79): 920 ± 70 ng/g wet wt
Brain DOPAC Levels ([1]; B (with probenecid 200 mg/kg i.p.), whole brain, control 169 ± 3): 130 ± 9 ng/g wet wt
% Inhibition of dopamine uptake, Mean ([2]; Volunteer 1, mean of two assays): 11.6%
% Inhibition of dopamine uptake, Mean ([2]; Volunteer 2, mean of two assays): 8.6%
% Inhibition of dopamine uptake, Mean ([2]; Volunteer 3, mean of two assays): 15.7%
% Inhibition of dopamine uptake ([2]; Volunteer 3, single assays (performed twice)): 13.4% and 17.9%
% Inhibition of dopamine uptake, Mean ([2]; Volunteer 4, mean of two assays): 17.9%
% Inhibition of dopamine uptake, Mean ([2]; Volunteer 5, mean of two assays): 15.7%
% Inhibition of dopamine uptake ([2]; Volunteer 5, single assays (performed twice)): 13.0% and 18.4%
% Inhibition of dopamine uptake, Mean ([2]; Volunteer 6, mean of two assays): 16.1%
mean (±SEM) % inhibition of 14C-dopamine uptake by plasma from the six drug-treated volunteers ([2]; mean of six volunteers): 14.2±1.4%

— US4871774A, “Medical treatment” (The Boots Company PLC, priority 1987, dated 1989)
